Reference: US20250058024A1, “INJECTABLE TOUGH AND VISCOELASTIC BTA HYDROGEL” (UNIVERSITEIT MAASTRICHT, priority 2021, published 2025)

What was measured:
[1] = Storage and handling stability of activated ester synthons; format: physicochemical; settings: for stability on handling in the lab: open handling in the lab, humid environment, 1H NMR
Excerpt: With the knowledge of proton chemical shift and peak splitting pattern of products, we were able to analyse the crude reaction mixtures and quickly determine the relative amount of the products in the reaction mixture. Molecule 1 produced a 57% yield of 5 (monosubstituted) when treated with 1.0 equiv nucleophile. The desymmetrization of 2 behaved similarly, and after separation and characterization the crude reaction mixture produced a 38% yield of 6 (monosubstituted derivative). […] When the same reaction was run for two equivalents of hexylamine, 1 produced 7 (disubstituted) in 48% yield and 2 produced 8 in 54% yield. […] With promising results, we then turned to desymmetrization of the penta-fluorophenol synthon, 3. […] After ^1H NMR analysis, we were able to determine the ratio of substituted derivatives in the crude reaction mixture (a similar pattern of doublet/triplets and singlets was observed as in the desymmetrization of 1). […] Both desymmetrization reactions yielded higher than statisctical yields and the products were able to be readily isolated via column chromatography. When developing a reactive synthon for desymmetrization, stability and scalability are also important factors to consider. […] Purification of 1 and 2 required a large volume of solvents owing to limited solubility (100s of mL for 10s of mg), while 3 offered a short one-step work up with good solubility.
Due to its ease of synthesis, stability, desymmetrization, and purification, 3 was determined to be the best candidate to work with moving forward. […] Furthermore, the stability of the F5Ph esters on 3 also offers easy separation of desymmetrized intermediates using flash column chromatography.
In order to test the applicability of the reaction methodology to different amine based neuclopehiles/side-arms, we attempted a few different amines. […] (Scheme 3).

[2] = cited from earlier work
[3] = under an inert (and dry) atmosphere

stability on storage [1, 3] | SMILES | stability on handling in the lab [1] | pka [2] | other results
– | O=C(Oc1ccc([N+](=O)[O-])cc1)c1cc(C(=O)Oc2ccc([N+](=O)[O-])cc2)cc(C(=O)Oc2ccc([N+](=O)[O-])cc2)c1 [compound 2] | started to hydrolyze | – | stability on storage ([1]; in a desiccator): stable in a desiccator when stored for a year
– | O=[N+]([O-])c1cccc(O)c1 [3-nitrophenol] | – | 8.36 | –
stable over months | CCCCCCNC(=O)c1cc(C(=O)Oc2c(F)c(F)c(F)c(F)c2F)cc(C(=O)Oc2c(F)c(F)c(F)c(F)c2F)c1 [compound 9] | – | – | –
– | O=C(Oc1cccc([N+](=O)[O-])c1)c1cc(C(=O)Oc2cccc([N+](=O)[O-])c2)cc(C(=O)Oc2cccc([N+](=O)[O-])c2)c1 [compound 1] | started to hydrolyze | – | stability on storage ([1]; in a desiccator): stable in a desiccator when stored for a year
stable over months | CCCCCCNC(=O)c1cc(C(=O)NCCCCCC)cc(C(=O)Oc2c(F)c(F)c(F)c(F)c2F)c1 [compound 10] | – | – | –
– | Oc1c(F)c(F)c(F)c(F)c1F [2,3,4,5,6-pentafluorophenol] | – | 5.4 | –
– | O=C1CCC(=O)N1O [N-hydroxy succinimide] | – | 6.0 | –
stable over years | O=C(Oc1c(F)c(F)c(F)c(F)c1F)c1cc(C(=O)Oc2c(F)c(F)c(F)c(F)c2F)cc(C(=O)Oc2c(F)c(F)c(F)c(F)c2F)c1 [compound 3, 1,3,5-benzenetricarbonylpentafluoroester] | stable for more than two years | – | –
